Assay results published in patent US11370776B2, “Sulfonylureas and sulfonylthioureas as NLRP3 inhibitors” (Inflazome Limited, priority 2017, dated 2022).
Structures can show the parent of a compound that is named as a salt.

Assays:
NLRP3 [1] = target: T1, NLRP3 (Homo sapiens, UniProt Q96P20); experiment: Human whole blood IL1β release assay; assay type: cell-based; set-up: Human whole blood in Li-heparin tubes was obtained from healthy donors; from tissue; host or cells: human whole blood from healthy donors, LPS-primed, nigericin-stimulated
Experimental: Human Whole Blood IL1β Release Assay
For systemic delivery, the ability to inhibit NLRP3 when the compounds are present within the bloodstream is of great importance. For this reason, the NLRP3 inhibitory activity of a number of compounds in human whole blood was investigated in accordance with the following protocol.
Human whole blood in Li-heparin tubes was obtained from healthy donors from a volunteer donor panel. • 1. […] Incubate for 3 hrs at 37° C., 5% CO2 • 4. Add 10 μl Nigericin (Sigma # N7143) (10 μM FAC) to all wells • 5. Incubate for 1 hr at 37° C., 5% CO2 • 6. At the end of the incubation period, spin plates at 300×g for 5 mins to pellet cells and remove 20 μl of supernatant and add to 96-well v-bottom plates for IL-1β analysis (note: these plates containing the supernatants can be stored at −80° C. to be analysed at a later date) • 7. IL-1β was measured according to the manufacturer protocol (Perkin Elmer-AlphaLisa IL-1 Kit AL220E-5000) • 8. IC50 data is fitted to a non-linear regression equation (log inhibitor vs response-variable slope 4-parameters)

NLRP3 [2] = target: T1, NLRP3; experiment: THP-1 cells pyroptosis assay; assay type: cell-based; set-up: Seed THP-1 cells (25,000 cells/well) containing 1.0 μg/ml LPS; host or cells: THP-1 cells, LPS-primed, nigericin-stimulated; conditions: for IC50: 1.0 μg/ml LPS, nigericin 5 μM, pyroptosis read with resazurin; for NLRP3 inhibitory activity (in words): THP-1 pyroptosis assay
Experimental: The cells were routinely passaged and grown to confluency (˜10^6 cells/ml). On the day of the experiment, THP-1 cells were harvested and resuspended into RPMI medium (without FBS). The cells were then counted and viability (>90%) checked by Trypan blue (Sigma # T8154). […] To this diluted cell solution was added LPS (Sigma # L4524) to give a 1 μg/ml Final Assay Concentration (FAC). 40 μl of the final preparation was aliquoted into each well of a 96-well plate. The plate thus prepared was used for compound screening. THP-1 Cells Pyroptosis Assay The following method step-by-step assay was followed for compound screening. • 1. […] Add 5 μl nigericin (Sigma # N7143) (FAC 5 μM) to all wells • 5. […] At the end of the incubation period, spin plates at 300×g for 3 mins and remove supernatant • 7. Then add 50 μl of resazurin (Sigma # R7017) (FAC 100 μM resazurin in RPMI medium without FBS) and incubate plates for a further 1-2 hrs at 37° C. and 5% CO2 • 8. […] IC50 data is fitted to a non-linear regression equation (log inhibitor vs response-variable slope 4-parameters) [table]

[3] = human whole blood, 1 μg/ml LPS, nigericin 10 μM, IL-1β release, read-out: HWB IC50
[4] = THP-1 cells, read-out: THP IC50

T1 sequence (Q96P20 whole entry): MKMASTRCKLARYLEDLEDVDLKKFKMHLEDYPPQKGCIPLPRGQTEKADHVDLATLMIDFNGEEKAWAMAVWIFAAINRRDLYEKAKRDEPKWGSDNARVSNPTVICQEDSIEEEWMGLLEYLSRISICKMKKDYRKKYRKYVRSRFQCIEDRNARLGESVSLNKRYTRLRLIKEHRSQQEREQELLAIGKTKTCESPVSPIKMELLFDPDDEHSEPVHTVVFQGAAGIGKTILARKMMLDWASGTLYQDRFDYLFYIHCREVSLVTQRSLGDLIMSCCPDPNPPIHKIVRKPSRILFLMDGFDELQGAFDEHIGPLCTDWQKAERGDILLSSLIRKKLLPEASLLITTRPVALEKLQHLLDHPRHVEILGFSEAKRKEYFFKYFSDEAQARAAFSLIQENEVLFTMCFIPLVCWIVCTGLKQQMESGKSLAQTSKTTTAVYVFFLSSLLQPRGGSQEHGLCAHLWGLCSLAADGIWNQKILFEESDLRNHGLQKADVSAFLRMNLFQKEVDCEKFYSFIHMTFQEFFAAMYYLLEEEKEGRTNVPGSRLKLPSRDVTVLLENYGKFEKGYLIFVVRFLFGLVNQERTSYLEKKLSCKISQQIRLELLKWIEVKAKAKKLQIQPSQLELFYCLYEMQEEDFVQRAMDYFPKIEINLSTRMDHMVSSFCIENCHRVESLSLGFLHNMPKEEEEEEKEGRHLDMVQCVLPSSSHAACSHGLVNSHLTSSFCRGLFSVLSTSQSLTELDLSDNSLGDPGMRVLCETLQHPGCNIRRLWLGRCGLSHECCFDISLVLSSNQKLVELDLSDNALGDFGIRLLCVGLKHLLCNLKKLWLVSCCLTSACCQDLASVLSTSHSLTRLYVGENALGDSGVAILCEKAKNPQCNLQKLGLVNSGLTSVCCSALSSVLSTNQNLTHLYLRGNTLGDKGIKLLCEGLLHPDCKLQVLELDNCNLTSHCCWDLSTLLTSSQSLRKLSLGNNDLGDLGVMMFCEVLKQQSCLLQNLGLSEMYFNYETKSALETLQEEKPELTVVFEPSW

SMILES	IC50 (NLRP3 [1]) [µM]	IC50 (NLRP3 [2]; THP IC50, THP-1 cells) [µM]	IC50 (NLRP3 [1]; [3]) [µM]	IC50 (NLRP3 [2]; [4]) [µM]	NLRP3 inhibitory activity (in words) (NLRP3 [2])
COc1cc(-c2cc(F)cc(C(C)C)c2NC(=O)NS(=O)(=O)c2cc(N(C)C)cnn2)ccn1 [Example 51, 5-(Dimethylamino)-N-((4-fluoro-2-isopropyl-6-(2-methoxypyridin-4-yl)phenyl)carbamoyl) pyridazine-3-sulfonamide]	< 2.5	< 0.8			
COc1cc(-c2ccc3c(c2NC(=O)NS(=O)(=O)c2cnc(N(C)C)cn2)CCC3)ccn1 [Example 40, 5-(Dimethylamino)-N-((5-(2-methoxypyridin-4-yl)-2,3-dihydro-1H-inden-4-yl)carbamoyl)pyrazine-2-sulfonamide]			< 2.5	< 0.8	
COc1cc(-c2ccc3c(c2NC(=O)NS(=O)(=O)c2ccnc(C(C)C)c2)CCC3)ccn1 [Example 60, 2-Isopropyl-N-((5-(2-methoxypyridin-4-yl)-2,3-dihydro-1H-inden-4-yl)carbamoyl)pyridine-4-sulfonamide, sodium salt]			< 2.5	< 0.8	
COc1cc(-c2ccc3c(c2NC(=O)NS(=O)(=O)c2cc(N(C)C)cnn2)CCC3)ccn1 [Example 52, 5-(Dimethylamino)-N-((5-(2-methoxypyridin-4-yl)-2,3-dihydro-1H-inden-4-yl)carbamoyl) pyridazine-3-sulfonamide]			< 2.5	< 0.8	
Nc1ncc(S(=O)(=O)NC(=O)Nc2c3c(cc4c2CCC4)CCC3)cn1 [Example 9, 2-Amino-N-((1,2,3,5,6,7-hexahydro-s-indacen-4-yl)carbamoyl) pyrimidine-5-sulfonamide, Potassium Salt]			< 2.5	< 2	
CC(C)c1cccc(C(C)C)c1NC(=O)NS(=O)(=O)c1cccnn1 [Example 7, N-((2,6-Diisopropylphenyl)carbamoyl)pyridazine-3-sulfonamide, Sodium Salt]			< 2.5	< 10	
O=C(Nc1c2c(cc3c1CCC3)CCC2)NS(=O)(=O)c1cncnc1 [Example 10, N-((1,2,3,5,6,7-Hexahydro-s-indacen-4-yl)carbamoyl) pyrimidine-5-sulfonamide, Potassium Salt]			< 7.5	< 10	
Cc1cc(C)nc(S(=O)(=O)NC(=O)Nc2c(-c3ccnc(C#N)c3)cc(F)cc2C(C)C)n1 [Example 46, N-((2-(2-Cyanopyridin-4-yl)-4-fluoro-6-isopropylphenyl)carbamoyl)-4,6-dimethylpyrimidine-2-sulfonamide]			< 2.5	< 0.8	highly active
Cc1cc(C)nc(S(=O)(=O)NC(=O)Nc2c3c(cc4c2CCC4)CCC3)n1 [Example 18, N-((1,2,3,5,6,7-Hexahydro-s-indacen-4-yl)carbamoyl)-4,6-dimethyl pyrimidine-2-sulfonamide, Potassium Salt]			< 2.5	< 0.8	highly active
CC(C)c1cc(F)cc(-c2ccnc(C#N)c2)c1NC(=O)NS(=O)(=O)c1cnc(N(C)C)cn1 [Example 38, N-((2-(2-Cyanopyridin-4-yl)-4-fluoro-6-isopropylphenyl)carbamoyl)-5-(dimethylamino)pyrazine-2-sulfonamide]			< 2.5	< 0.8	
Cc1cc(C)nc(S(=O)(=O)NC(=O)Nc2c(-c3ccncc3)cc(F)c3c2CCC3)n1 [Example 49, N-((7-Fluoro-5-(pyridin-4-yl)-2,3-dihydro-1H-inden-4-yl)carbamoyl)-4,6-dimethylpyrimidine-2-sulfonamide]			< 2.5	< 0.8	highly active
